Experiments:
Assay in all cases: SILAC proteomics / in-gel fluorescence, competition of probe 13-t labeling by 3a
[1] = biological target: T1, proteins of HEK293T cells transiently overexpressing caspase-6 (Homo sapiens, UniProt Q99832); conditions: Comp; protein CCT7 Q99832
T1 sequence (Q99832 1-543): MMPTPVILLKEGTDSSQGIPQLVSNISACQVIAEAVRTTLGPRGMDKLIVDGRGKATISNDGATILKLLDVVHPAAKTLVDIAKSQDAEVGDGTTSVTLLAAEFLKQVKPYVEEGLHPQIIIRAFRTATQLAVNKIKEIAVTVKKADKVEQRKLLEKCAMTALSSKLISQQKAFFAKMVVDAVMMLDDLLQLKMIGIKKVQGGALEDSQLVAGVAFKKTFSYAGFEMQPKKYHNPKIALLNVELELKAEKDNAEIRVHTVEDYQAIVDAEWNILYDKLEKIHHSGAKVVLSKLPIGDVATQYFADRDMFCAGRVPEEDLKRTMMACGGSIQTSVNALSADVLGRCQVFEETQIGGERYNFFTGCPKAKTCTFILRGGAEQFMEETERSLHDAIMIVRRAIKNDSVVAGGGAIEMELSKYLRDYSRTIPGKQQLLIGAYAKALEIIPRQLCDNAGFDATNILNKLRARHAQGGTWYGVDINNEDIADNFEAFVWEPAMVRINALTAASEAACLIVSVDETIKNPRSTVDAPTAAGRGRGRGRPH

[2] = biological target: proteins of HEK293T cells transiently overexpressing caspase-6 (Homo sapiens, UniProt Q14974); conditions: Comp; protein KPNB1 Q14974
[3] = biological target: T2, proteins of HEK293T cells transiently overexpressing caspase-6 (Homo sapiens, UniProt P12236)
T2 sequence (P12236 1-298): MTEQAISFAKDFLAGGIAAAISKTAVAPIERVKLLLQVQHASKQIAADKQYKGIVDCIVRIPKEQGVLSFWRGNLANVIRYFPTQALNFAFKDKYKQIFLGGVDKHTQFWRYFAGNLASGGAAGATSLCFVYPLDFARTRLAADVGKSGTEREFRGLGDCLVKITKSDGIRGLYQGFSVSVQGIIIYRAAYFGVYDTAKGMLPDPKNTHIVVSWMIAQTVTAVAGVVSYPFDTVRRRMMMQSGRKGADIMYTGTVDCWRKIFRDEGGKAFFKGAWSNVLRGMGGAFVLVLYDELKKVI

[4] = biological target: T3, proteins of HEK293T cells transiently overexpressing caspase-6 (Homo sapiens, UniProt O75844)
T3 sequence (O75844 1-475): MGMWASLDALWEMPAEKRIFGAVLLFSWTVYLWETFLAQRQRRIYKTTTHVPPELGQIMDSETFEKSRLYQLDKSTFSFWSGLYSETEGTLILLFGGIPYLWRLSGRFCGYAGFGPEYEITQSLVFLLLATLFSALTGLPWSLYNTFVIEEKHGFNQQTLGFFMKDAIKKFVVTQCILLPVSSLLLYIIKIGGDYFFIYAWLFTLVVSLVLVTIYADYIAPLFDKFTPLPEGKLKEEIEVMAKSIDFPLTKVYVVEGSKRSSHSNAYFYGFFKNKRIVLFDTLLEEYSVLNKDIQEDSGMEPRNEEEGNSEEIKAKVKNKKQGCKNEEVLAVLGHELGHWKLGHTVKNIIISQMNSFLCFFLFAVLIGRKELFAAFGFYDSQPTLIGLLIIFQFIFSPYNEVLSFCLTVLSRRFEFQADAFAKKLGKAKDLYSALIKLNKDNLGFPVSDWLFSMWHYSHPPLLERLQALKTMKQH

[5] = biological target: T4, proteins of HEK293T cells transiently overexpressing caspase-6 (Homo sapiens, UniProt P54136)
T4 sequence (P54136 1-660): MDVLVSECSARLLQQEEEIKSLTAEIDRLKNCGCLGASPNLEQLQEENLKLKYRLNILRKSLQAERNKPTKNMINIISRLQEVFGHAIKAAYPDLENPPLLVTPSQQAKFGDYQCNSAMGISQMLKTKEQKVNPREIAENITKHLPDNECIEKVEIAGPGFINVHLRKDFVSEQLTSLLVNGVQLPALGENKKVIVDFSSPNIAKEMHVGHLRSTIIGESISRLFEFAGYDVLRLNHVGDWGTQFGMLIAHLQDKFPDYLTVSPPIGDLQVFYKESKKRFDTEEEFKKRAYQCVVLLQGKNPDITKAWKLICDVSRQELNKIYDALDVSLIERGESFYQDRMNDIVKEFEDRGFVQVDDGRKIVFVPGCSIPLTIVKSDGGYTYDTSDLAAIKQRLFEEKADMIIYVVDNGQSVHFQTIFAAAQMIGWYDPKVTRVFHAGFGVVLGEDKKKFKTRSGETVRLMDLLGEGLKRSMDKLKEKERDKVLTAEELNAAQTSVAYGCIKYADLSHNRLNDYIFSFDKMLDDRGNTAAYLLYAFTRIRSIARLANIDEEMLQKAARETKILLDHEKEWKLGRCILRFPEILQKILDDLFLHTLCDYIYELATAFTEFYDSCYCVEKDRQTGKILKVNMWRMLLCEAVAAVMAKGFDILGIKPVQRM

[6] = biological target: proteins of HEK293T cells transiently overexpressing caspase-6 (Homo sapiens, UniProt Q13838); conditions: Comp; protein DDX39B Q13838
[7] = biological target: proteins of HEK293T cells transiently overexpressing caspase-6 (Homo sapiens, UniProt P31943); conditions: Comp; protein HNRNPH1 P31943
[8] = biological target: proteins of HEK293T cells transiently overexpressing caspase-6 (Homo sapiens, UniProt Q13148); conditions: Comp; protein TARDBP Q13148
[9] = protein SLC25A6 (P12236), Exp Comp, analysis C6, p 0.5000, 2 peptides
[10] = protein ZMPSTE24 (O75844), Exp Comp, analysis C6, p 0.5000, 2 peptides
[11] = protein RARS (P54136), Exp Comp, analysis C6, p 0.0312, 7 peptides

Chain of proteins of HEK293T cells transiently overexpressing caspase-6 (Homo sapiens, UniProt Q14974) (Q14974 whole entry): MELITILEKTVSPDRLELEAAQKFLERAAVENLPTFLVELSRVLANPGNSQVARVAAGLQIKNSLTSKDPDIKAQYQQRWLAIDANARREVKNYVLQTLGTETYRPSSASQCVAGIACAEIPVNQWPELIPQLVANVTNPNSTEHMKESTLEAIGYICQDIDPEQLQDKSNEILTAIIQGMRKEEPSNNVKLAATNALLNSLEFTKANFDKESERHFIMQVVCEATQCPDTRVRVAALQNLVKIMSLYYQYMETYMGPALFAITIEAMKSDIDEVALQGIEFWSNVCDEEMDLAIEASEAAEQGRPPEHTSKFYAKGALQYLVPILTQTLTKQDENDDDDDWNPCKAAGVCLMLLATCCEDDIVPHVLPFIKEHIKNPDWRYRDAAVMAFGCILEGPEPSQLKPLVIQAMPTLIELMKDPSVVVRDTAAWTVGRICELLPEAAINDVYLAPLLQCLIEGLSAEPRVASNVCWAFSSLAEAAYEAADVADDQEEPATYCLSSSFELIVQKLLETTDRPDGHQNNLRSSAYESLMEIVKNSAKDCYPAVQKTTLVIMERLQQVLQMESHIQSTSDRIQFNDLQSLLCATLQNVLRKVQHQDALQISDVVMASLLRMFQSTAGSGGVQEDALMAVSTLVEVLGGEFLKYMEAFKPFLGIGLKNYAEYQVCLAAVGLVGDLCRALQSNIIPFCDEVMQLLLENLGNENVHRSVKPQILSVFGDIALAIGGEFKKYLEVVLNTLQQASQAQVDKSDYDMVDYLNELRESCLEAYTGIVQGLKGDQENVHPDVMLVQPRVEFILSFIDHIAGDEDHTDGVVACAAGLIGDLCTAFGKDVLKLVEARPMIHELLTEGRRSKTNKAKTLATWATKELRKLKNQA
Chain of proteins of HEK293T cells transiently overexpressing caspase-6 (Homo sapiens, UniProt P31943) (P31943 whole entry): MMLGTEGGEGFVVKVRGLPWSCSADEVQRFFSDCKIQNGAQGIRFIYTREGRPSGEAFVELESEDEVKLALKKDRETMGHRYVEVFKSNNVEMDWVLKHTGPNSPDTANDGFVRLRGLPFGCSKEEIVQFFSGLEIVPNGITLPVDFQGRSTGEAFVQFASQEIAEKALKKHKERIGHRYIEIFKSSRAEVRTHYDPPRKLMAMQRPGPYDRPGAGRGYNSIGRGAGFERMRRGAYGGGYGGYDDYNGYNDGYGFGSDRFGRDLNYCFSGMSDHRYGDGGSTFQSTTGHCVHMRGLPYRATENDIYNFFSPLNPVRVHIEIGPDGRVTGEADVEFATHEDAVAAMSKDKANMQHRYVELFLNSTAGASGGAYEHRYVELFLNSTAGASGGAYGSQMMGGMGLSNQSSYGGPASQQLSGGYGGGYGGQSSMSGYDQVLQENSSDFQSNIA
Chain of proteins of HEK293T cells transiently overexpressing caspase-6 (Homo sapiens, UniProt Q13838) (Q13838 whole entry): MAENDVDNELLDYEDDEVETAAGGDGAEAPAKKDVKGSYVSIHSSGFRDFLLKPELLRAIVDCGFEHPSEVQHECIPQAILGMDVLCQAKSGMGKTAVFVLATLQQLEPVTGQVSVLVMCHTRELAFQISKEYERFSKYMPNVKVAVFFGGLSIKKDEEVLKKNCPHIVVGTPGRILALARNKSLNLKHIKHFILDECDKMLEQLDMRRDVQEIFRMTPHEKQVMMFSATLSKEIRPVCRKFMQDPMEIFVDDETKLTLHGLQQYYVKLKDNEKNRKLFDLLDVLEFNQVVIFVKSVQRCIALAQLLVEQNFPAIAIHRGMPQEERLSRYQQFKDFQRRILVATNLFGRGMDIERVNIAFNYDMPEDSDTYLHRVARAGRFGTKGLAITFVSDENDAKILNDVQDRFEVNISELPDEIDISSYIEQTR
Chain of proteins of HEK293T cells transiently overexpressing caspase-6 (Homo sapiens, UniProt Q13148) (Q13148 whole entry): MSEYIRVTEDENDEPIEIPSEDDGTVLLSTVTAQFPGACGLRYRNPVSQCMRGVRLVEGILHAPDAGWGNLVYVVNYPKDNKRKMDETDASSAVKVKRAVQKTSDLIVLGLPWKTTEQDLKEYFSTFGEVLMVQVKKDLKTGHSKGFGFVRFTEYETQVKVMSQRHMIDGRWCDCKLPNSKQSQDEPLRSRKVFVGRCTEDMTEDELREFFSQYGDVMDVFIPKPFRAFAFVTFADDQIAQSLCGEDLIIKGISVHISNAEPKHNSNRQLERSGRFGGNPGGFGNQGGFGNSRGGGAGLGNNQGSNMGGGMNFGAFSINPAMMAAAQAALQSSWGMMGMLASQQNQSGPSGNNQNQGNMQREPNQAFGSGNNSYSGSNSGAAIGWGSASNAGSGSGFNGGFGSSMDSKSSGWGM

`C=CS(=O)(=O)N1C[C@H](C(=O)Nc2ccc(OC(F)(F)F)cc2)C[C@@H](c2ccccc2)C1` [3a] was tested, and the enrich.exp.med [1] was 0.6137, the enrich.exp.med [2] was 0.6036 and the enrich.exp.med ([3]; Comp, protein SLC25A6 P12236) was 3.139. For the same molecule, the enrich.exp.med.lin [3, 9] was 8.81, the enrich.exp.med.log2 [3, 9] was 3.139 and the enrich.exp.med ([4]; Comp, protein ZMPSTE24 O75844) was 1.01. It also gave an enrich.exp.med.lin [4, 10] of 2.0144, an enrich.exp.med.log2 [4, 10] of 1.01 and an enrich.exp.med ([5]; Comp, protein RARS P54136) of 1.077. The enrich.exp.med.lin [5, 11] was 2.11, the enrich.exp.med.log2 [5, 11] was 1.077 and the enrich.exp.med [6] was 0.6915. The enrich.exp.med [7] was 0.7263 and the enrich.exp.med [8] was 0.8327.
